Literature values as cited in patent US20130116211A1, “Novel Salts Of Boswellic Acids And Selectively Enriched Boswellic Acids And Processes For The Same” (priority 2005, published 2013).

Assays:
5-LOX = molecular target: T1, 5-LOX (Homo sapiens, UniProt P09917)
T1 sequence (P09917 1-674): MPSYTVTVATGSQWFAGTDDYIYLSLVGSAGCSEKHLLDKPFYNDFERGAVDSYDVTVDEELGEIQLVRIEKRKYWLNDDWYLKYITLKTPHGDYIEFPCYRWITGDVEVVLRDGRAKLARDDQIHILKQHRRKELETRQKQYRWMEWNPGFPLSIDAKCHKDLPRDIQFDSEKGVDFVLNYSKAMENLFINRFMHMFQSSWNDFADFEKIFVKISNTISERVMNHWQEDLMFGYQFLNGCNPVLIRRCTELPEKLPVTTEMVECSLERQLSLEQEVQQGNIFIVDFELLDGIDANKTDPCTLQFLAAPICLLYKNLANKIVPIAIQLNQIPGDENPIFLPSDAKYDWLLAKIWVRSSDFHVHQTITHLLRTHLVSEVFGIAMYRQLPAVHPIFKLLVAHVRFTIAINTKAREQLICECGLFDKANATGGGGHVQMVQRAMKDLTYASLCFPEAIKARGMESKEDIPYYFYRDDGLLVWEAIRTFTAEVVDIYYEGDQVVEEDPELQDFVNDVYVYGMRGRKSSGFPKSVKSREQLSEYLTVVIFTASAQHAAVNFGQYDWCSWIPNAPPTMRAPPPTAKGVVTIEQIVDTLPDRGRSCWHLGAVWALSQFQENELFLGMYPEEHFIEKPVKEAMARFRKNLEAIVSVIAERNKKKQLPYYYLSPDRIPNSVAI

[1] = test system: symptoms of osteoarthritis; settings: relieving the symptoms of osteoarthritis, double-blind studies

Compound | mechanism of 5-LOX inhibition (5-LOX; binds in a calcium-dependent and reversible manner (Sailer 1998)) | inhibitory activity against 5-LOX (5-LOX; compared among all the six boswellic acids (Sailer 1996)) | therapeutic effects versus non steroidal anti-inflammatory drugs [1]
3-O-acetyl-11-keto-β-boswellic acid [AKBA] | non-redox-type, non-competitive inhibitor | most pronounced inhibitory activity | 
N[C@H]1C(O)O[C@H](CO)[C@@H](O)[C@@H]1O.O=S(=O)(O)O (stereo partly drawn) [glucosamine sulfate] |  |  | comparable to or even better than
